Test results as given in the kinase profiling compilation of Christmann-Franck et al. (2016).

Legend:
Test in all cases: KINOMEscan competition binding
Details in all cases: compound 10.0 µM
[1] = biological target: ACVR1B (human) (UniProt P36896)
[2] = biological target: AKT3 (human) (UniProt Q9Y243)
[3] = biological target: BRAF (human) (UniProt P15056)
[4] = biological target: CAMK4 (human) (UniProt Q16566)
[5] = biological target: CAMKK1 (human) (UniProt Q8N5S9)
[6] = biological target: CDC42BPB (human) (UniProt Q9Y5S2)
[7] = biological target: CDK13 (human) (UniProt Q14004)
[8] = biological target: CDK15 (human) (UniProt Q96Q40)
[9] = biological target: CDK19 (human) (UniProt Q9BWU1)
[10] = biological target: CHEK2 (human) (UniProt O96017)
[11] = biological target: CIT (human) (UniProt O14578)
[12] = tested on: EGFR (human), P00533 [L861Q]
[13] = biological target: EPHB2 (human) (UniProt P29323)
[14] = biological target: ERBB2 (human) (UniProt P04626)
Sequence of ERBB2 (human) (P04626 whole entry, looked up): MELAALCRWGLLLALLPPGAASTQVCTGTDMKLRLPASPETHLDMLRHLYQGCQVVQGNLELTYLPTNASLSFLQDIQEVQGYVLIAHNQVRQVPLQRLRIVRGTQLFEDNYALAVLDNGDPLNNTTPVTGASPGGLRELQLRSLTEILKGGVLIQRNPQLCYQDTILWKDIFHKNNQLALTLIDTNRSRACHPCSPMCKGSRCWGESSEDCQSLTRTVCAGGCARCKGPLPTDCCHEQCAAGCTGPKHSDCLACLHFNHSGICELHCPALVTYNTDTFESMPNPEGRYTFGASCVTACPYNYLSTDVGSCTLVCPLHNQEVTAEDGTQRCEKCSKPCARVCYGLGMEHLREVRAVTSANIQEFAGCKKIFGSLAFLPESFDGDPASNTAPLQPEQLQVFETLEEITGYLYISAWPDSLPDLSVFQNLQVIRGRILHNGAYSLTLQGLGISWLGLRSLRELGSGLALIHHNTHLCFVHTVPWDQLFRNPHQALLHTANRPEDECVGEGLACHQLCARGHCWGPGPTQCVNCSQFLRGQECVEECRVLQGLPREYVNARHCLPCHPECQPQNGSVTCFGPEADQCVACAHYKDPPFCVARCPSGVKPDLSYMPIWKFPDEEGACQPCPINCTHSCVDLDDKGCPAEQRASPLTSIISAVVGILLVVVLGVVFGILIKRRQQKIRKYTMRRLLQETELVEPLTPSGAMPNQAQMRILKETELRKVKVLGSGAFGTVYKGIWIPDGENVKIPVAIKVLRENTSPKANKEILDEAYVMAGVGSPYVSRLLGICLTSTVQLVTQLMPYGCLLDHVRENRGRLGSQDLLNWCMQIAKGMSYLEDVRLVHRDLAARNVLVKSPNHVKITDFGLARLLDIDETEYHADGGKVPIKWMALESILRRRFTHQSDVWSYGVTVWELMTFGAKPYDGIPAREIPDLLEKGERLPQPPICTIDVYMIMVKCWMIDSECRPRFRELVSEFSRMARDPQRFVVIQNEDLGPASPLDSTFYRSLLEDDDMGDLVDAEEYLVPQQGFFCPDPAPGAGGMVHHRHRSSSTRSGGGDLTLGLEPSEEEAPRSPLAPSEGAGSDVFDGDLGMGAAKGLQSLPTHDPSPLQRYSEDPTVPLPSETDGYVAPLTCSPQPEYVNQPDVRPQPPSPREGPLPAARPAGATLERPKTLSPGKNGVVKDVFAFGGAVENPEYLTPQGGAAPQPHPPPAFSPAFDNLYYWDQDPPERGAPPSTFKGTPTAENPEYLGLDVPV

[15] = biological target: FER (human) (UniProt P16591)
[16] = biological target: FLT1 (human) (UniProt P17948)
Sequence of FLT1 (human) (P17948 whole entry, looked up): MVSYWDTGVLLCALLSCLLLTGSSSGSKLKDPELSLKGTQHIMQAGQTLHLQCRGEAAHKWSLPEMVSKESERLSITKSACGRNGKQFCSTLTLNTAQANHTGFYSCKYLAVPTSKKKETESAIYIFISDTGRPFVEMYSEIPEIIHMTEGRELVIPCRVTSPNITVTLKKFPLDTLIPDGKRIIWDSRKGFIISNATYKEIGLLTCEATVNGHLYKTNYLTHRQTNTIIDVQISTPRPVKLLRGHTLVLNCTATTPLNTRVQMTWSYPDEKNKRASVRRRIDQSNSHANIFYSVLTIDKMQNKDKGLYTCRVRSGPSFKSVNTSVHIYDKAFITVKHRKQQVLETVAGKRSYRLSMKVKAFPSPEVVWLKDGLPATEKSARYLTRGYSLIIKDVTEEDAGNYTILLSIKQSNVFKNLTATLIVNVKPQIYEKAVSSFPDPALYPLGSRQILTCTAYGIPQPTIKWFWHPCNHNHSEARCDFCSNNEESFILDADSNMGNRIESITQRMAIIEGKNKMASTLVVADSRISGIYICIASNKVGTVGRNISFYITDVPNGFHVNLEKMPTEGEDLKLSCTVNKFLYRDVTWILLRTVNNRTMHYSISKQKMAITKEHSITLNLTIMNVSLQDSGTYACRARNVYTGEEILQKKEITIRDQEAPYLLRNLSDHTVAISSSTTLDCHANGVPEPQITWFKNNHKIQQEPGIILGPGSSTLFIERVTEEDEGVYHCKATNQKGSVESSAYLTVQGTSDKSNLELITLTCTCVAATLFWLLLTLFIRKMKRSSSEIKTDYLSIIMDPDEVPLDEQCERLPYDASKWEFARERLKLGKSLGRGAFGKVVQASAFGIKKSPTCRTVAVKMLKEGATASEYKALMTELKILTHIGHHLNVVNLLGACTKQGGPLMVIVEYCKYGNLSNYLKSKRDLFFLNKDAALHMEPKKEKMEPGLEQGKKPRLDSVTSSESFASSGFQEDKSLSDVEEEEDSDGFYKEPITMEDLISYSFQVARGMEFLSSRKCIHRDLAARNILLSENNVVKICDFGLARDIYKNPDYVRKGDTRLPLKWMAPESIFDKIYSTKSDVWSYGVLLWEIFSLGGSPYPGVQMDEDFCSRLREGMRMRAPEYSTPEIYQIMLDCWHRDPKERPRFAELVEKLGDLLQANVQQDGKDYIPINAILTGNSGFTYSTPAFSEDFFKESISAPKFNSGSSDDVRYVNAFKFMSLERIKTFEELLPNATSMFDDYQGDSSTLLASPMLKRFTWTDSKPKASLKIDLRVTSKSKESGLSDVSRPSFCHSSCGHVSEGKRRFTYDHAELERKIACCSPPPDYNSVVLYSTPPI

[17] = tested on: FLT3 (human), P36888 [ITD]
[18] = biological target: IKBKB (human) (UniProt O14920)
[19] = biological target: JAK1 JH1 catalytic (human) (UniProt P23458)
[20] = biological target: KDR (human) (UniProt P35968)
[21] = tested on: KIT (human), P10721 [V559D/T670I]
[22] = biological target: LCK (human) (UniProt P06239)
[23] = biological target: MAP2K2 (human) (UniProt P36507)
Sequence of MAP2K2 (human) (P36507 whole entry, looked up): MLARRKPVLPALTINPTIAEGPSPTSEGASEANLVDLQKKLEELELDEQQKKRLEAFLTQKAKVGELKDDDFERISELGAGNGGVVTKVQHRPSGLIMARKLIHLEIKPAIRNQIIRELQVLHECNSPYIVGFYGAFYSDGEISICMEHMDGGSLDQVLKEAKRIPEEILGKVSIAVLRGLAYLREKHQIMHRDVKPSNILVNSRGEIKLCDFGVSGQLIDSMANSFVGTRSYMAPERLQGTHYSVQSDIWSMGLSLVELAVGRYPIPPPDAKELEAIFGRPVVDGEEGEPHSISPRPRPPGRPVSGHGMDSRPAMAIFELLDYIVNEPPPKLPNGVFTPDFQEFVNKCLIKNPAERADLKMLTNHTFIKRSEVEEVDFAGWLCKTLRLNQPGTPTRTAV

[24] = biological target: MAP3K15 (human) (UniProt Q6ZN16)
[25] = biological target: MAPK13 (human) (UniProt O15264)
[26] = biological target: MAPK4 (human) (UniProt P31152)
[27] = biological target: MAPK8 (human) (UniProt P45983)
[28] = biological target: MATK (human) (UniProt P42679)
[29] = biological target: MET (human) (UniProt P08581)
[30] = biological target: NIM1 (human) (UniProt Q8IY84)
[31] = biological target: PDPK1 (human) (UniProt O15530)
[32] = biological target: PLK2 (human) (UniProt Q9NYY3)
[33] = biological target: PRKCH (human) (UniProt P24723)
[34] = biological target: PRKCI (human) (UniProt P41743)
[35] = biological target: RIOK3 (human) (UniProt O14730)
[36] = biological target: RIPK4 (human) (UniProt P57078)
Sequence of RIPK4 (human) (P57078 whole entry, looked up): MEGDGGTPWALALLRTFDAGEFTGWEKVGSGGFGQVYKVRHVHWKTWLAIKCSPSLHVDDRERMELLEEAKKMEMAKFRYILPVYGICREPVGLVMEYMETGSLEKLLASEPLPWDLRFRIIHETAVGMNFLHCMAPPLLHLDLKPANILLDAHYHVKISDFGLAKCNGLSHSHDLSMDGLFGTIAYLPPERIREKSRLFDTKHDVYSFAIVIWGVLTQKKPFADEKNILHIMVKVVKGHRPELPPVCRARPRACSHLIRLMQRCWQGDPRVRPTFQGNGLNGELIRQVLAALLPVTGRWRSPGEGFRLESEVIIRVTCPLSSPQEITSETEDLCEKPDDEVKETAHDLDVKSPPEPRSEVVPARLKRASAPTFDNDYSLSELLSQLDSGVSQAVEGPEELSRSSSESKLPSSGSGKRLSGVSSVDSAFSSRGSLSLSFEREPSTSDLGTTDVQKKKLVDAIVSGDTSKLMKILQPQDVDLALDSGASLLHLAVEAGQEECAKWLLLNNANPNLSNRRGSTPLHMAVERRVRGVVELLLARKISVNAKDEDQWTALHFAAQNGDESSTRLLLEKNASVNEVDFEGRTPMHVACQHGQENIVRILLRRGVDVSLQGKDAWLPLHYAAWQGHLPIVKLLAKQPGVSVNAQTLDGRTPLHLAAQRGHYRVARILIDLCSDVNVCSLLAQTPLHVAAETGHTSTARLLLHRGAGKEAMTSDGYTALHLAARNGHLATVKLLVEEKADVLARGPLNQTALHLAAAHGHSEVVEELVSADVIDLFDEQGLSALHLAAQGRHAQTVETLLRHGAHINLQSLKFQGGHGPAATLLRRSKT

[37] = biological target: SRPK1 (human) (UniProt Q96SB4)
Sequence of SRPK1 (human) (Q96SB4 whole entry, looked up): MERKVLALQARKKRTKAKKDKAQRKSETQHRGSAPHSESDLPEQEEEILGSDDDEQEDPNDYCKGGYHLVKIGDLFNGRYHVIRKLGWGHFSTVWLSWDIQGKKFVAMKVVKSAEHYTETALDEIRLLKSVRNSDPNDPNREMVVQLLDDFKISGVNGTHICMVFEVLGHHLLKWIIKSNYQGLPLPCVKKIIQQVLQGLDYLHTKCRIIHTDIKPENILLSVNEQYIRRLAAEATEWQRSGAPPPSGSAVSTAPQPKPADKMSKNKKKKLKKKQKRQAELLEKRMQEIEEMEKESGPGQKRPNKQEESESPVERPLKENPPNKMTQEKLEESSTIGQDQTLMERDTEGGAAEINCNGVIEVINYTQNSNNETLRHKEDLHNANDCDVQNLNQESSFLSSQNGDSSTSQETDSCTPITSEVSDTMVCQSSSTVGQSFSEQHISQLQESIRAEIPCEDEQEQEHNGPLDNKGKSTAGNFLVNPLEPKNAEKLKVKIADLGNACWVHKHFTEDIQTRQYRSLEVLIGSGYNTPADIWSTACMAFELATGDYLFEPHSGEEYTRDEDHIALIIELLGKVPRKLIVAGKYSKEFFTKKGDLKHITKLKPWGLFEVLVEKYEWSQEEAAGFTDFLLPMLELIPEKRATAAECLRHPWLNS

[38] = biological target: STK17A (human) (UniProt Q9UEE5)
[39] = biological target: STK36 (human) (UniProt Q9NRP7)
[40] = biological target: TAOK1 (human) (UniProt Q7L7X3)
[41] = biological target: TRPM6 (human) (UniProt Q9BX84)

Sequence of CAMK4 (human) (Q16566 whole entry, looked up): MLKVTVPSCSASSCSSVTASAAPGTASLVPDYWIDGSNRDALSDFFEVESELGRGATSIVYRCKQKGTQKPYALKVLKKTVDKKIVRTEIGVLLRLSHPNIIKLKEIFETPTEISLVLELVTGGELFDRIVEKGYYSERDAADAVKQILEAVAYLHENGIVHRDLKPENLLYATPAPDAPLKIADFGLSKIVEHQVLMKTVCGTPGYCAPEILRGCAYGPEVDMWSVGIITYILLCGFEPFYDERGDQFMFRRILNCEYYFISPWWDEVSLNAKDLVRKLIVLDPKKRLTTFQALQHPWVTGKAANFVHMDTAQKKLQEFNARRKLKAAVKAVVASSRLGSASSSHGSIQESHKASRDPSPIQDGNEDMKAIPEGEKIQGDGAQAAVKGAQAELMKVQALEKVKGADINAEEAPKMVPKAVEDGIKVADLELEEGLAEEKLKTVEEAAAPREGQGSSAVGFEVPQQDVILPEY

## COc1cc(C(=O)N2CCC(N3CCN(C)CC3)CC2)ccc1Nc1ncc2c(n1)N(C)c1ccccc1C(=O)N2C
[1]
  kinase still bound, per cent of control: 100%
[2]
  kinase still bound, per cent of control: 100%
[3]
  kinase still bound, per cent of control: 81%
[4]
  kinase still bound, per cent of control: 79%
[5]
  kinase still bound, per cent of control: 73%
[6]
  kinase still bound, per cent of control: 100%
[7]
  residual activity: 100%
[8]
  residual activity: 100%
[9]
  residual activity: 100%
[10]
  kinase still bound, per cent of control: 66%
[11]
  kinase still bound, per cent of control: 99%
[12]
  kinase still bound, per cent of control: 100%
[13]
  kinase still bound, per cent of control: 100%
[14]
  kinase still bound, per cent of control: 100%
[15]
  kinase still bound, per cent of control: 51%
[16]
  kinase still bound, per cent of control: 100%
[17]
  kinase still bound, per cent of control: 100%
[18]
  kinase still bound, per cent of control: 89%
[19]
  kinase still bound, per cent of control: 100%
[20]
  kinase still bound, per cent of control: 84%
[21]
  kinase still bound, per cent of control: 81%
[22]
  kinase still bound, per cent of control: 100%
[23]
  kinase still bound, per cent of control: 99%
[24]
  kinase still bound, per cent of control: 69%
[25]
  kinase still bound, per cent of control: 72%
[26]
  kinase still bound, per cent of control: 100%
[27]
  kinase still bound, per cent of control: 95%
[28]
  kinase still bound, per cent of control: 100%
[29]
  kinase still bound, per cent of control: 100%
[30]
  kinase still bound, per cent of control: 100%
[31]
  kinase still bound, per cent of control: 100%
[32]
  kinase still bound, per cent of control: 100%
[33]
  kinase still bound, per cent of control: 100%
[34]
  kinase still bound, per cent of control: 100%
[35]
  kinase still bound, per cent of control: 85%
[36]
  kinase still bound, per cent of control: 74%
[37]
  kinase still bound, per cent of control: 94%
[38]
  kinase still bound, per cent of control: 100%
[39]
  kinase still bound, per cent of control: 97%
[40]
  kinase still bound, per cent of control: 28%
[41]
  kinase still bound, per cent of control: 100%
